Converted amounts (≈) assume the structure as drawn.
What was measured:
[1] = Cytotoxicity against mouse 3PS cells xenografted in mouse at 18 mg/kg relative to control; format: functional
[2] = Toxicity in Artemia salina; format: organism-based; settings: in vivo
Spodoptera frugiperda = assay: Antifeedant activity against Spodoptera frugiperda assessed as feeding ratio for 5 seconds; format: functional
[3] = system: Agrobacterium tumefaciens; assay: Antitumor activity against Agrobacterium tumefaciens-induced crown gall tumor assessed as tumor inhibition in potato tubers by potato disk assay relative to control; format: functional
[4] = Cytotoxicity against mouse 3PS cells xenografted in mouse at 37 mg/kg relative to control; format: functional
[5] = system: Agrobacterium tumefaciens; assay: Effect on Agrobacterium tumefaciens-induced crown gall tumor in potato tubers by potato disk assay relative to control; format: functional
[6] = Cytotoxicity against mouse 3PS cells xenografted in mouse at 30 mg/kg relative to control; format: functional
[7] = Cytotoxicity against mouse 3PS cells xenografted in mouse at 35 mg/kg relative to control; format: functional

| SMILES | T/C [1] [%] | LC50 [2] [µg/mL] | Ratio (Spodoptera frugiperda) | inhibition (INH) [3] [%] | T/C [4] [%] | Activity [5] [%] | T/C [6] [%] | T/C [7] [%] |
| --- | --- | --- | --- | --- | --- | --- | --- | --- |
| Oc1cc(O)cc(C2c3c(/C=C/c4ccc(O)c(O)c4)cc(O)cc3OC2c2ccc(O)c(O)c2)c1 (centres undefined) [SCIRPUSIN B] | 99 | 389 (≈ 800 µM) | 0.23 | 40 | – | – | – | – |
| Oc1ccc(/C=C/c2cc(O)cc(O)c2)cc1 [RESVERATROL] | – | – | – | – | 100 | 39 | – | – |
| Oc1ccc(/C=C/c2cc(O)cc3c2[C@H](c2cc(O)cc(O)c2)[C@@H](c2ccc(O)c(O)c2)O3)cc1 [SCIRPUSIN A] | – | 488 (≈ 1040 µM) | 1 | – | – | 17 | 103 | – |
| Oc1cc(O)cc(/C=C/c2ccc(O)c(O)c2)c1 [PICEATANNOL] | – | 278 (≈ 1140 µM) | 0.38 | 17 | – | – | – | 131 |
